Laboratory results reported in patent US9677112B2 (priority 2012, dated 2017).
Where two headings read alike, the source gives them in different places. Marks after values point to notes of the source that are not given here.

What was measured:
TEM-1 Bla = TEM-1 Bla (Escherichia coli, UniProt P62593); test: Fluorescence activation of probes by TEM-1 Bla; assay type: biochemical, E. coli; conditions: for change in fluorescence with TEM-1 Bla (in words): TEM-1 Bla 50 nM, 30 minutes
Method: (§1) The fluorescent spectra of the probes CDC-1, CDC-3, CDC-OMe and CDC-OEt were recorded before and after BlaC treatment to examine their responses to BlaC.
(§2) The response of CDC-OMe to varying concentrations of BlaC and TEM-1 Bla (at a range of 1 pM to 100 nM) was examined to investigate its specificity (FIG. 1C). 1 nM of BlaC (100 μL) induced a 130% increase in the fluorescence intensity within one hour (F/F0=2.3), while a 100-fold higher TEM-1 Bla concentration (100 nM) could only produce 30% fluorescence enhancement (F/F0=1.3).
(§3) Even at a more than 1000-fold higher concentration, the fluorescence signal of CDG-OMe generated by TEM-1 Bla (400 nM) was just 30% of that by BlaC (400 pM) in 300 mins, confirming its high selectivity for BlaC (FIG. 5C). Less than 1 fmol of BlaC was readily detectable with CDG-OMe after 8 hours incubation (FIG. 5D).

BlaC-expressing E. coli = assay type: cell-based
BlaC [1] = target: T1, BlaC (Mycobacterium tuberculosis, UniProt P9WKD3); conditions: for Km: read-out: BlaC Km
T1 sequence (P9WKD3 35-307 limits assumed): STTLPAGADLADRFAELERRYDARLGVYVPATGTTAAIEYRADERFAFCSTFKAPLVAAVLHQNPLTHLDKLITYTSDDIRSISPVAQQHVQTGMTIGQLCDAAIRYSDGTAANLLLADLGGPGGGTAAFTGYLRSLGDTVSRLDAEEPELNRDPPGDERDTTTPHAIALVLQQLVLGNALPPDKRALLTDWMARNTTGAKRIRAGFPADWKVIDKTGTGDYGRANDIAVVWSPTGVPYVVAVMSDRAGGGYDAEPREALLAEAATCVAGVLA

BlaC [2] = target: T1, BlaC; test: Fluorescence activation of probes by BlaC; assay type: biochemical
Method: as §1, §2, §3

[3] = test system: TEM-1 Bla-expressing E. coli; assay type: cell-based
[4] = test system: M. tuberculosis var. bovis strain BCG; assay type: cell-based, Mycobacterium tuberculosis var. bovis strain BCG
[5] = test system: COc1ccc(-c2c3ccc(=O)cc-3oc3cc(OCc4ccc(OCC5=C(C(=O)O)N6C(=O)[C@@H](NC(=O)Cc7ccccc7)[C@H]6SC5)cc4)ccc23)c(C)c1; test: purified protein, by the assay type; conditions: 22.0 °C
[6] = test system: COc1ccc(-c2c3ccc(=O)cc-3oc3cc(OCc4ccc(OCC5=C(C(=O)O)N6C(=O)[C@](NC(=O)Cc7ccccc7)(OC)[C@H]6SC5)cc4)ccc23)c(C)c1; test: purified protein, by the assay type; conditions: 22.0 °C
[7] = test system: O=C(Cc1ccccc1)N[C@@H]1C(=O)N2C(C(=O)O)=C(COc3ccc4ccc(=O)oc4c3)C[S@+]([O-])[C@H]12; test: purified protein, by the assay type; conditions: pH 7.4; 22.0 °C
[8] = 1 nM of BlaC (100 μL), within one hour

TEM-1 Bla, sequence (P62593 24-286 limits assumed): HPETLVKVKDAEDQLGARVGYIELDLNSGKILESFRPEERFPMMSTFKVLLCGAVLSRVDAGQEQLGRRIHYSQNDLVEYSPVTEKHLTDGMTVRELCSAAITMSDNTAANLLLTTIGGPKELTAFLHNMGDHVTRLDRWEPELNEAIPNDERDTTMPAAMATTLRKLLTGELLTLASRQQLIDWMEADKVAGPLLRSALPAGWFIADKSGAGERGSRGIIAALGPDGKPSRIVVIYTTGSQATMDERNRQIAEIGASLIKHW

For O=C(Cc1ccccc1)N[C@@H]1C(=O)N2C(C(=O)O)=C(COc3ccc4ccc(=O)oc4c3)CS[C@H]12 [CDC-1, (6R,7R)-8-Oxo-3-((2-oxo-2H-chromen-7-yloxy)methyl)-7-(2-phenylacetamido)-5-thia-1-azabicyclo[4.2.0]oct-2-ene-2-carboxylic acid], the “change in fluorescence with TEM-1 Bla (in words)” value (“change in fluorescence” below) (TEM-1 Bla) was “rapid fluorescence”, the “signal with TEM-1 Bla compared with BlaC (in words)” value (TEM-1 Bla; serially diluted enzymes, 1 hour) was “stronger signal than with BlaC” and the “fluorescence in E. coli expressing no β-lactamase, TEM-1 Bla or BlaC (in words)” value (BlaC-expressing E. coli) was “present in E. coli expressing either TEM-1 Bla or BlaC”. The BlaC kcat (BlaC [1]) was 13 s⁻¹ and the Km (BlaC [1]) was 63 µM.
CCN1CCN(C(=O)N[C@@H](C(=O)N[C@@H]2C(=O)N3C(C(=O)O)=C(COc4ccc5ccc(=O)oc5c4)CS[C@H]23)c2ccccc2)C(=O)C1=O [CDC-3, (6R,7R)-7-((R)-2-(4-Ethyl-2,3-dioxopiperazine-1-carboxamido)-2-phenylacetamido)-8-oxo-3-((2-oxo-2H-chromen-7-yloxy)methyl)-5-thia-1-azabicyclo[4.2.0]oct-2-ene-2-carboxylic acid] was tested, and the “change in fluorescence” value (TEM-1 Bla) was “rapid fluorescence”, the BlaC kcat (BlaC [1]) was 6 s⁻¹ and the Km (BlaC [1]) was 69 µM.
Work on CC(=O)N[C@@H]1C(=O)N2C(C(=O)O)=C(COc3ccc4ccc(=O)oc4c3)CS[C@H]12 [CDC-4, (6R,7R)-7-Acetamido-8-oxo-3-(((2-oxo-2H-chromen-7-yl)oxy)methyl)-5-thia-1-azabicyclo[4.2.0]oct-2-ene-2-carboxylic acid] yielded a BlaC kcat (BlaC [1]) of 10 s⁻¹ and a Km (BlaC [1]) of 148 µM.
CO[C@@]1(NC(C)=O)C(=O)N2C(C(=O)O)=C(COc3ccc4ccc(=O)oc4c3)CS[C@@H]21 [CDC-5, (6R,7S)-7-Acetamido-7-methoxy-8-oxo-3-(((2-oxo-2H-chromen-7-yl)oxy)methyl)-5-thia-1-azabicyclo[4.2.0]oct-2-ene-2-carboxylic acid] gave a BlaC kcat (BlaC [1]) of 0.52 s⁻¹ and a Km (BlaC [1]) of 139 µM.
In the case of CCO[C@@]1(NC(=O)Cc2ccccc2)C(=O)N2C(C(=O)O)=C(COc3ccc4ccc(=O)oc4c3)CS[C@@H]21 [CDC-OEt, (6R,7S)-7-Ethoxy-8-oxo-3-((2-oxo-2H-chromen-7-yloxy)methyl)-7-(2-phenylacetamido)-5-thia-1-azabicyclo[4.2.0]oct-2-ene-2-carboxylic acid], the “fluorescence enhancement by BlaC (in words)” value (BlaC [2]; within 30 minutes, BlaC 50 nM) is reported as “only slight fluorescence enhancement”, the BlaC kcat (BlaC [1]) is reported as 0.026 s⁻¹ and the “further reduction in turnover number (BlaC) relative to CDC-OMe” value (BlaC [1]) is reported as 40 fold. It also gave a Km (BlaC [1]) of 131 µM.
CO[C@@]1(NC(=O)Cc2ccccc2)C(=O)N2C(C(=O)O)=C(COc3ccc4ccc(=O)oc4c3)CS[C@@H]21 [CDC-OMe, (6R,7S)-7-Methoxy-8-oxo-3-((2-oxo-2H-chromen-7-yloxy)methyl)-7-(2-phenylacetamido)-5-thia-1-azabicyclo[4.2.0]oct-2-ene-2-carboxylic acid] was tested, and the “F/F0 (turn-on ratio)” value (BlaC [2]; [8]) was 2.3, the “increase in the fluorescence intensity” value (BlaC [2]; [8]) was 130% and the “enhancement of fluorescence intensity by BlaC” value (BlaC [2]; in less than 30 minutes, BlaC 50 nM) was “more than 30 fold”. For the same molecule, the “change in fluorescence” value (TEM-1 Bla) was “no change in the fluorescence intensity”, the “F/F0 (turn-on ratio)” value (TEM-1 Bla; TEM-1 Bla 100 nM, one hour) was 1.3 and the fluorescence enhancement (TEM-1 Bla; TEM-1 Bla 100 nM, one hour) was 30%. The “fluorescence in E. coli expressing no β-lactamase, TEM-1 Bla or BlaC (in words)” value (BlaC-expressing E. coli) was “strong fluorescence was observed only with E. coli expressing BlaC”, the BlaC kcat (BlaC [1]) was 1 s⁻¹ and the “catalytic efficiency (kcat/Km) for BlaC over TEM-1 Bla” value (BlaC [1]) was “over 1,000 fold”. For the same molecule, the Km (BlaC [1]) was 47 µM.
With COc1ccc(-c2c3ccc(=O)cc-3oc3cc(OCc4ccc(OCC5=C(C(=O)O)N6C(=O)[C@@H](NC(=O)Cc7ccccc7)[C@H]6SC5)cc4)ccc23)c(C)c1 [CDG-1, (6R,7R)-3-((4-(((9-(4-Methoxy-2-methylphenyl)-3-oxo-3H-xanthen-6-yl)oxy)methyl)phenoxy)methyl)-8-oxo-7-(2-phenylacetamido)-5-thia-1-azabicyclo[4.2.0]oct-2-ene-2-carboxylic acid] the “number of BlaC-carrying E. coli detected” value (BlaC-expressing E. coli) was ~10,000, the “number of TEM-1 Bla-carrying E. coli detected” value [3] was “approximately 1,000” and the BlaC kcat (BlaC [1]; pH 6.6) was “(1.0) s^−1”.
COc1ccc(-c2c3ccc(=O)cc-3oc3cc(OCc4ccc(OCC5=C(C(=O)O)N6C(=O)[C@](NC(=O)Cc7ccccc7)(OC)[C@H]6SC5)cc4)ccc23)c(C)c1 [CDG-OMe, (6R,7S)-7-Methoxy-3-((4-(((9-(4-methoxy-2-methylphenyl)-3-oxo-3H-xanthen-6-yl)oxy)methyl)phenoxy)methyl)-8-oxo-7-(2-phenylacetamido)-5-thia-1-azabicyclo[4.2.0]oct-2-ene-2-carboxylic acid] was tested, and the “amount of BlaC readily detectable” value (BlaC [2]; after 8 hours incubation) was “Less than 1 fmol”, the “increase of fluorescence emission at 520 nm upon treatment with BlaC” value (BlaC [2]; excitation 490 nm) was “up to 218 fold” and the “fluorescence signal generated by TEM-1 Bla relative to that by BlaC” value (TEM-1 Bla; TEM-1 Bla 400 nM vs BlaC 400 pM, 300 mins) was 30%. For the same molecule, the “signal from BlaC-expressing E. coli (in words)” value (BlaC-expressing E. coli) was “strong fluorescent signal”, the “signal from TEM-1 Bla-expressing E. coli (in words)” value [3] was “no detectable signal” and the “number of BCG detected” value ([4]; 20 min incubation) was 2×10^5 CFU. The “number of BCG detected” value ([4]; 438 mins (7 hours) incubation) was 10^3 CFU, the “increase of kcat/Km for BlaC relative to CDC-OMe” value (BlaC [1]) was 11 fold and the BlaC kcat (BlaC [1]; pH 6.6) was “(0.8) s^−1”.
In the case of BlaC (Mycobacterium tuberculosis H37Rv), the Km ([5]; pH 6.6) is reported as “(2.1)^c μM”, the Km ([5]; pH 7.4) is reported as 2.1 µM and the kcat ([5]; pH 7.4) is reported as 3.7 s⁻¹. For the same molecule, the kcat/Km ([5]; pH 7.4) was 1.8 × 10^6 s^−1M^−1, the Km ([6]; pH 6.6) was “(4.7)^c μM” and the Km ([6]; pH 7.4) was 2.9 µM. The kcat ([6]; pH 7.4) was 0.7 s⁻¹, the kcat/Km ([6]; pH 7.4) was 2.4 × 10^5 s^−1M^−1 and the Km [7] was 136 µM. The kcat [7] was 0.51 s⁻¹ and the kcat/Km [7] was 3.8 × 10^3 s^−1M^−1.
